{"source": "paper PMC7592892", "about": "“Anemarsaponin BII inhibits the activity of CYP3A4, 2D6, and 2E1 with human liver microsomes” (Pharmaceutical Biology, 2020)", "key": {"[1]": {"target": "T1, CYP3A4 (Homo sapiens, UniProt P08684)", "T1 construct": "marker reactions with specific substrates in human liver microsomes (HLMs); from tissue; host or cells: pooled human liver microsomes", "T1 sequence (P08684 whole entry)": "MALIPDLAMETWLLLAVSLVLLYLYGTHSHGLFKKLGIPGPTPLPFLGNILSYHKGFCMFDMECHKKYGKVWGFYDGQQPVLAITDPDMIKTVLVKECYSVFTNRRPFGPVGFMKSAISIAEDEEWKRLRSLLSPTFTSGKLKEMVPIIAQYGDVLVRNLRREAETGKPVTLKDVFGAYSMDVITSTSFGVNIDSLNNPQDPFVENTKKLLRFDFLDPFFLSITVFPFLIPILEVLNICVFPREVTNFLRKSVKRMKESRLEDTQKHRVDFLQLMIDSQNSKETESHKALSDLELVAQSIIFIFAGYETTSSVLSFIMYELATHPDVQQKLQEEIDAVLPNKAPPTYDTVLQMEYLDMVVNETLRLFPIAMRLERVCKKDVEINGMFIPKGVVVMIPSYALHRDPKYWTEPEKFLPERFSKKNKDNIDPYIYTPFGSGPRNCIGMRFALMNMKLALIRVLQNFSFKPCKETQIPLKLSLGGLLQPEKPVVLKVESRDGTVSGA", "assay": "CYP3A4 inhibition in pooled human liver microsomes (testosterone 6β-hydroxylation)", "type": "in vitro ADME", "settings": "HLMs, 20–100 μM testosterone, non-competitive model", "protocol": "(§1) The activity of CYP450s was evaluated by the marker reactions with specific substrates in human liver microsomes (HLMs). The reaction conditions are summarized in Table 1 according to previous studies. The concentration of anemarsaponin BII was 100 μM with the following concentration of specific inhibitors: 10 μM furafylline for CYP1A2, 10 μM tranylcypromine for CYP2A6, 1 μM ketoconazole for CYP3A4, 5 μM montelukast for CYP2C8, 10 μM sulfaphenazole for CYP2C9, 50 μM tranylcypromine for CYP2C19, 10 μM quinidine for CYP2D6, 50 μM clomethiazole for CYP2E1. 200 μL incubation system included 100 mM potassium phosphate buffer (pH 7.4), NADPH generating system (1 mM NADP^+, 10 mM glucose-6-phosphate, 1 U/mL of glucose-6-phosphate dehydrogenase, and 4 mM MgCl2), the appropriate concentration of HLMs, a corresponding probe substrate and anemarsaponin BII (or positive inhibitor for different probe reactions). The HADPH-generating system was added before the incubation to preincubate for 3 min at 37 °C. The reaction was terminated with 100 μL acetonitrile (10% trichloroacetic acid for CYP2A6). Then, the mixture was centrifuged at 12,000 rpm for 10 min, and an aliquot (50 μL) of supernatant was transferred for HPLC analysis with the help of the Agilent 1260 series instrument with DAD and FLD detector according to previous studies. The HPLC conditions for analysis of corresponding metabolites of CYP isoforms are summarized in Table 2 based on previous studies (Lang et al. [2017]; Zhang et al. [2017]).\nIncubations were performed in triplicate, and results were represented with the mean value. […]\nThe effect of anemarsaponin BII on the activity of CYPs was evaluated in pooled human liver microsomes according to previous studies (Dong et al. [2018]; Wang et al. [2019]). The residual activity of eight CYP isoforms was first detected with 100 μM anemarsaponin BII in HLMs. […]\nThe enzyme kinetic parameters for the probe reaction were estimated from the best fit line, using least-squares linear regression of the inverse substrate concentration versus the inverse velocity (Lineweaver–Burk plots), and the mean values were used to calculate Vmax and Km. Inhibition data from the experiments that were conducted using multiple compound concentrations were represented by Dixon plots, and inhibition constant (KI) values were calculated using non-linear regression according to the following equation: Competitive inhibition:v=(VmaxS)/(Km(1+I/KI)+S), Non-competitive inhibition:v=(VmaxS)/[Km+S(1+I/KIKi)] where I is the concentration of the compound, KI is the inhibition constant, S is the concentration of the substrate, and Km is the substrate concentration at half the maximum velocity (Vmax) of the reaction. […]"}, "[2]": {"target": "T2, CYP2D6 (Homo sapiens, UniProt P10635)", "T2 construct": "marker reactions with specific substrates in human liver microsomes (HLMs); from tissue; host or cells: pooled human liver microsomes", "T2 sequence (P10635 whole entry)": "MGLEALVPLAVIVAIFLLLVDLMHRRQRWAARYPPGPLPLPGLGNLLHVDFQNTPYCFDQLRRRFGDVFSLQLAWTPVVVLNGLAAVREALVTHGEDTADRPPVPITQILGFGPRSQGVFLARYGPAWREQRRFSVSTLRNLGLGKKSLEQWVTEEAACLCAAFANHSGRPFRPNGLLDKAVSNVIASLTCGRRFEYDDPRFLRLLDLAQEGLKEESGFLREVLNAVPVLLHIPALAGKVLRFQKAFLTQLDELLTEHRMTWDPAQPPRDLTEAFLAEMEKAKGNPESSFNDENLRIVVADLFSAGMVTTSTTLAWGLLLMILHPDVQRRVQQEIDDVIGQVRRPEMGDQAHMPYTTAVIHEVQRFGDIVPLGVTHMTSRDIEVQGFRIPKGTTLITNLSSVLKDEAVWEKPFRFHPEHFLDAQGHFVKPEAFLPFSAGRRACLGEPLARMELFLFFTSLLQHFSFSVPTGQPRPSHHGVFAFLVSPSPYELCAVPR", "assay": "Time-dependent inhibition of CYP2D6 in HLMs", "type": "in vitro ADME", "settings": "20 μM anemarsaponin BII, data not shown", "protocol": "(§2) The effect of incubation time on the inhibition of anemarsaponin BII was evaluated with 20 μM anemarsaponin BII. HLMs were preincubated with anemarsaponin BII and the NADPH-generating system for 30 min at 37 °C. Then, an aliquot (20 μL) was transferred to another incubation tube (final volume 200 μL) containing an NADPH-generating system and probe substrates, of which final concentrations were approximate to Km. After incubating for 0, 5, 10, 15 and 30 min, the reaction was terminated with 100 μL acetonitrile internal standard mix and placed on ice. The metabolites were analyzed by HPLC. To obtain the values of KI and Kinact, another incubation with a higher concentration of substrates (approximately 4-fold Km values) was performed in the presence of 0–50 μM anemarsaponin BII for 0, 5, 10, 15 and 30 min."}, "[3]": {"target": "T3, CYP2E1 (Homo sapiens, UniProt P05181)", "T3 construct": "marker reactions with specific substrates in human liver microsomes (HLMs); from tissue; host or cells: pooled human liver microsomes", "T3 sequence (P05181 whole entry)": "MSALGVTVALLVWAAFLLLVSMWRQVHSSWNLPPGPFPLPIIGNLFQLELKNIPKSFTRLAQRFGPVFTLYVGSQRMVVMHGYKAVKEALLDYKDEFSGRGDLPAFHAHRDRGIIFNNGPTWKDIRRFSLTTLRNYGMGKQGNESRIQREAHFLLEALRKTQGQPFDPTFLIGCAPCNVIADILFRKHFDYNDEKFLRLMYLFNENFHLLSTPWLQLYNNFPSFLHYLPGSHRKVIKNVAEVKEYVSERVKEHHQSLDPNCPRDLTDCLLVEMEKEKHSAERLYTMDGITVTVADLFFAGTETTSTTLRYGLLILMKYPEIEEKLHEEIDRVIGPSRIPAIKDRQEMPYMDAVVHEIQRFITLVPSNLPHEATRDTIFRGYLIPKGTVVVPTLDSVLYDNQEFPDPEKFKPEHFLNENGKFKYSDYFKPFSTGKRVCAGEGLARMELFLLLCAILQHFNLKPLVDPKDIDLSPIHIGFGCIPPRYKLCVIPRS", "assay": "Time-dependent inhibition of CYP2E1 in HLMs", "type": "in vitro ADME", "settings": "20 μM anemarsaponin BII, data not shown", "protocol": "as §2"}, "[4]": {"target": "T1, CYP3A4", "assay": "Time-dependent inhibition of CYP3A4 in HLMs", "type": "in vitro ADME", "protocol": "as §2"}, "[5]": {"settings": "rat, in vivo, 171.61 mg/kg; cited from earlier work"}, "[6]": {"tested_on": "T4, CYP2C8", "T4 construct": "marker reactions with specific substrates in human liver microsomes (HLMs); from tissue; host or cells: pooled human liver microsomes", "type": "in vitro ADME", "settings": "human, microsomes, 100 μM, pH 7.4", "protocol": "as §1, with “[2017]). Incubations were performed in triplicate, and results were represented with the mean value. The final microsomal protein concentration and incubation times for the different probe reactions are summarized in Table 1 based on previous studies (Lang et al. [2017]; Wang et al. [2019]). The effect of anemarsaponin BII on the activity of CYPs was evaluated in pooled human liver microsomes according to previous studies (Dong et al. [2018]; Wang et al. [2019]). The residual activity of eight CYP isoforms was first detected with 100 μM anemarsaponin BII in HLMs. Next, CYPs of which the activity was inhibited by anemarsaponin BII was incubated with 0, 2.5, 5, 10, 25, 50 and 100 μM anemarsaponin BII to explore the values of half inhibition concentration (IC50). Additionally, 0–50 μM anemarsaponin BII was incubated with various concentration of probe substrates (20–100 μM testosterone for CYP3A4, 10–50 μM dextromethorphan for CYP2D6, and 25–250 μM chlorzoxazone for CYP2E1) to obtain the values of KI.” for “[2017]).”"}, "[7]": {"tested_on": "T5, CYP2A6", "T5 construct": "marker reactions with specific substrates in human liver microsomes (HLMs); from tissue; host or cells: pooled human liver microsomes", "type": "in vitro ADME", "settings": "human, microsomes, 100 μM, pH 7.4", "protocol": "as §1, with “[2017]). Incubations were performed in triplicate, and results were represented with the mean value. The final microsomal protein concentration and incubation times for the different probe reactions are summarized in Table 1 based on previous studies (Lang et al. [2017]; Wang et al. [2019]). The effect of anemarsaponin BII on the activity of CYPs was evaluated in pooled human liver microsomes according to previous studies (Dong et al. [2018]; Wang et al. [2019]). The residual activity of eight CYP isoforms was first detected with 100 μM anemarsaponin BII in HLMs. Next, CYPs of which the activity was inhibited by anemarsaponin BII was incubated with 0, 2.5, 5, 10, 25, 50 and 100 μM anemarsaponin BII to explore the values of half inhibition concentration (IC50). Additionally, 0–50 μM anemarsaponin BII was incubated with various concentration of probe substrates (20–100 μM testosterone for CYP3A4, 10–50 μM dextromethorphan for CYP2D6, and 25–250 μM chlorzoxazone for CYP2E1) to obtain the values of KI.” for “[2017]).”"}, "[8]": {"tested_on": "T6, CYP2C9", "T6 construct": "marker reactions with specific substrates in human liver microsomes (HLMs); from tissue; host or cells: pooled human liver microsomes", "type": "in vitro ADME", "settings": "human, microsomes, 100 μM, pH 7.4", "protocol": "as §1, with “[2017]). Incubations were performed in triplicate, and results were represented with the mean value. The final microsomal protein concentration and incubation times for the different probe reactions are summarized in Table 1 based on previous studies (Lang et al. [2017]; Wang et al. [2019]). The effect of anemarsaponin BII on the activity of CYPs was evaluated in pooled human liver microsomes according to previous studies (Dong et al. [2018]; Wang et al. [2019]). The residual activity of eight CYP isoforms was first detected with 100 μM anemarsaponin BII in HLMs. Next, CYPs of which the activity was inhibited by anemarsaponin BII was incubated with 0, 2.5, 5, 10, 25, 50 and 100 μM anemarsaponin BII to explore the values of half inhibition concentration (IC50). Additionally, 0–50 μM anemarsaponin BII was incubated with various concentration of probe substrates (20–100 μM testosterone for CYP3A4, 10–50 μM dextromethorphan for CYP2D6, and 25–250 μM chlorzoxazone for CYP2E1) to obtain the values of KI.” for “[2017]).”"}, "[9]": {"tested_on": "T7, CYP1A2", "T7 construct": "marker reactions with specific substrates in human liver microsomes (HLMs); from tissue; host or cells: pooled human liver microsomes", "type": "in vitro ADME", "settings": "human, microsomes, 100 μM, pH 7.4", "protocol": "as §1, with “[2017]). Incubations were performed in triplicate, and results were represented with the mean value. The final microsomal protein concentration and incubation times for the different probe reactions are summarized in Table 1 based on previous studies (Lang et al. [2017]; Wang et al. [2019]). The effect of anemarsaponin BII on the activity of CYPs was evaluated in pooled human liver microsomes according to previous studies (Dong et al. [2018]; Wang et al. [2019]). The residual activity of eight CYP isoforms was first detected with 100 μM anemarsaponin BII in HLMs. Next, CYPs of which the activity was inhibited by anemarsaponin BII was incubated with 0, 2.5, 5, 10, 25, 50 and 100 μM anemarsaponin BII to explore the values of half inhibition concentration (IC50). Additionally, 0–50 μM anemarsaponin BII was incubated with various concentration of probe substrates (20–100 μM testosterone for CYP3A4, 10–50 μM dextromethorphan for CYP2D6, and 25–250 μM chlorzoxazone for CYP2E1) to obtain the values of KI.” for “[2017]).”"}, "[10]": {"tested_on": "T8, CYP2C19", "T8 construct": "marker reactions with specific substrates in human liver microsomes (HLMs); from tissue; host or cells: pooled human liver microsomes", "type": "in vitro ADME", "settings": "human, microsomes, 100 μM, pH 7.4", "protocol": "as §1, with “[2017]). Incubations were performed in triplicate, and results were represented with the mean value. The final microsomal protein concentration and incubation times for the different probe reactions are summarized in Table 1 based on previous studies (Lang et al. [2017]; Wang et al. [2019]). The effect of anemarsaponin BII on the activity of CYPs was evaluated in pooled human liver microsomes according to previous studies (Dong et al. [2018]; Wang et al. [2019]). The residual activity of eight CYP isoforms was first detected with 100 μM anemarsaponin BII in HLMs. Next, CYPs of which the activity was inhibited by anemarsaponin BII was incubated with 0, 2.5, 5, 10, 25, 50 and 100 μM anemarsaponin BII to explore the values of half inhibition concentration (IC50). Additionally, 0–50 μM anemarsaponin BII was incubated with various concentration of probe substrates (20–100 μM testosterone for CYP3A4, 10–50 μM dextromethorphan for CYP2D6, and 25–250 μM chlorzoxazone for CYP2E1) to obtain the values of KI.” for “[2017]).”"}, "[11]": {"settings": "rat, in vivo; cited from earlier work"}}, "data": [{"smiles": "CC(CCC1(O)OC2CC3C4CCC5CC(OC6OC(CO)C(O)C(O)C6OC6OC(CO)C(O)C(O)C6O)CCC5(C)C4CCC3(C)C2C1C)COC1OC(CO)C(O)C(O)C1O", "note": "(stereo not shown) [anemarsaponin BII, Anemarsaponin BII]", "values": [{"measurement": "Ki", "setting": "[1]", "result": 6.72, "unit": "µM"}, {"measurement": "effect of incubation time on inhibition of CYP2D6", "setting": "[2]", "result": "not affected by the incubation time"}, {"measurement": "effect of incubation time on inhibition of CYP2E1", "setting": "[3]", "result": "not affected by the incubation time"}, {"measurement": "effect of incubation time on inhibition of CYP3A4", "setting": "[4]; 20 μM anemarsaponin BII", "result": "increased with the incubation time"}, {"measurement": "kinact", "setting": "[4]; human, human liver microsomes, NADPH, 0–50 μM anemarsaponin BII, 0-30 min, non-linear regression", "result": 0.000883, "unit": "s⁻¹"}, {"measurement": "Cmax", "setting": "[5]", "result": 271.22, "unit": "ng/mL"}, {"measurement": "t1/2", "setting": "[5]", "result": 3.21, "unit": "h"}, {"measurement": "effect on activity of CYP2C8", "setting": "[6]", "result": "only the activity of CYP3A4, 2D6 and 2E1 was significantly inhibited"}, {"measurement": "effect on activity of CYP2A6", "setting": "[7]", "result": "only the activity of CYP3A4, 2D6 and 2E1 was significantly inhibited"}, {"measurement": "effect on activity of CYP2C9", "setting": "[8]", "result": "only the activity of CYP3A4, 2D6 and 2E1 was significantly inhibited"}, {"measurement": "effect on activity of CYP1A2", "setting": "[9]", "result": "only the activity of CYP3A4, 2D6 and 2E1 was significantly inhibited"}, {"measurement": "effect on activity of CYP2C19", "setting": "[10]", "result": "only the activity of CYP3A4, 2D6 and 2E1 was significantly inhibited"}, {"measurement": "half-life (t1/2)", "setting": "[11]", "result": 2.7, "unit": "h"}]}]}
